Publication PMC3321104 (Bioorganic & medicinal chemistry letters, 2012)
Like-named read-outs stand apart in the source and are kept apart here.

Experiments:
[1] = test system: Vero cell; assay: Vero cell toxicity; assay type: cell-based; settings: concentrations up to 25 μM
[2] = test system: chloroquine-resistant P. falciparum strain W2; assay: microbe, parasite or virus in culture; settings: Plasmodium falciparum
[3] = test system: chloroquine-resistant P. falciparum strain W2

With CC1=C(CCCC[P+](c2ccccc2)(c2ccccc2)c2ccccc2)C(=O)c2ccccc2C1=O [9o, (4-(3-methyl-1,4-dioxo-1,4-dihydronaphthalen-2-yl)butyl)triphenyl-phosphonium methanesulfonate] the “Vero cell toxicity (in words)” value [1] was “not displaying toxicity at 25 μM”.
Work on CCN(CC)CCCC(C)Nc1ccnc2cc(Cl)ccc12 (centres unmarked) [CQ, chloroquine] yielded an IC50 ([2]; W2, read-out: IC50 (nM), P. falciparum growth) of 66.9 ± 2.3 nM and an IC50 ([2]; W2, read-out: IC50, P. falciparum W2) of 66.9 nM.
CC1=C(CCCCC[P+](c2ccccc2)(c2ccccc2)c2ccccc2)C(=O)c2ccccc2C1=O [9n] was tested, and the “fold greater activity than control 4a” value [3] was 3–7 fold.
For O=C(Cn1ccnc1[N+](=O)[O-])NCc1ccccc1 [BNZ, benznidazole], the “Vero cell toxicity (in words)” value [1] was “non-toxic”.
